Values quoted from earlier work as cited in US7312209B2, “Acridone inhibitors of IMPDH enzyme” (Bristol-Myers Squibb Company, priority 2001, dated 2007).

How the values were obtained:
IMPDH types I and II = conditions: RT-PCR; low and high concentrations
IL-2, IL-4, and IFN = conditions: RT-PCR; Rol 10^−7 M, MPA 10^−8 M
[1] = test system: antigen-specific T lymphocyte responses; conditions: in combination with Rol 10^−7 M

SMILES | gene expression for IMPDH types I and II (IMPDH types I and II) | downregulation in the generation of proinflammatory cytokines (IL-2, IL-4, IFN) (IL-2, IL-4, and IFN) | synergistic effect on inhibition of antigen-induced proliferation [1]
COc1c(C)c2c(c(O)c1C/C=C(\C)CCC(=O)O)C(=O)OC2 [MPA, mycophenolic acid] | remained unaffected | no significant downregulation | marked synergistic effect
COc1ccc(C2CNC(=O)C2)cc1OC1CCCC1 (stereo not drawn) [Rol, 4-[3-(cyclopentyloxy)-4-methoxy-phenyl]-2-pyrrolidinone] | remained unaffected | no significant downregulation | 
C=CC[C@@H]1/C=C(\C)C[C@H](C)C[C@H](OC)[C@H]2O[C@@](O)(C(=O)C(=O)N3CCCC[C@H]3C(=O)O[C@H](/C(C)=C/[C@@H]3CC[C@@H](O)[C@H](OC)C3)[C@H](C)[C@@H](O)CC1=O)[C@H](C)C[C@@H]2OC [tacrolimus] |  |  | little or no synergistic effect
